From ChEMBL document CHEMBL6153084, “The development of α, β-unsaturated lactam-based andrographolide derivatives as anti-gastric cancer agents with the ability of inhibiting the ERK/c-Fos/Jun pathway” (Eur J Med Chem, 2025)
The source made the active and inactive calls. The calls are words filed in the database; no cut-off is given here.

Assays:
MGC-803 [1] = experiment: Antitumor activity against human MGC-803 cells xenografted in BALB/c mouse assessed as inhibition of tumor growth at 50 mg/kg, IG administered for 14 days; assay type: functional; details: MGC-803, po, 336 h, time 14 day, read-out: TGI
MGC-803 [2] = experiment: Antitumor activity against human MGC-803 cells xenografted in BALB/c mouse assessed as inhibition of tumor growth at 25 mg/kg, IG administered for 14 days; assay type: functional; details: MGC-803, po, 336 h, time 14 day, read-out: TGI
MGC-803 [3] = experiment: Antiproliferative activity against human MGC-803 cells assessed as inhibition of cell growth incubated for 48 hrs by MTT assay; assay type: functional, cell-based; details: MGC-803, 48 h
A549 = experiment: Antiproliferative activity against human A549 cells assessed as inhibition of cell growth incubated for 24 to 72 hrs by MTT assay; assay type: functional, cell-based; details: time 24-72 hrs
[4] = Toxicity in BALB/c mouse implanted with human MGC-803 cells assessed as body weight loss at 25 to 50 mg/kg, IG; assay type: organism-based; details: in vivo, po, dose 25-50 mg/kg
MGC-803 [5] = experiment: Antiproliferative activity against human MGC-803 cells assessed as inhibition of cell growth incubated for 72 hrs by MTT assay; assay type: functional, cell-based; details: MGC-803, 72 h
MGC-803 [6] = experiment: Induction of apoptosis in human MGC-803 cells assessed as late apoptotic cells at 2 uM incubated for 48 hrs by Annexin V-FITC/PI staining based flow cytometry analysis (reference value: 0.98%); assay type: functional
[7] = Potency index, ratio of 5-fluorouracil IC50 to test compound IC50 for antiproliferative activity against human MGC-803 cells assessed as inhibition of cell growth incubated for 24 to 72 hrs by MTT assay; assay type: functional; details: time 24-72 hrs
AGS = experiment: Antiproliferative activity against human AGS cells assessed as inhibition of cell growth incubated for 48 hrs by MTT assay; assay type: functional, cell-based
PC-3 = experiment: Antiproliferative activity against human PC-3 cells assessed as inhibition of cell growth incubated for 24 to 72 hrs by MTT assay; assay type: functional, cell-based; details: time 24-72 hrs
BGC-823 = experiment: Antiproliferative activity against human BGC-823 cells assessed as inhibition of cell growth incubated for 48 hrs by MTT assay; assay type: functional, cell-based; details: BGC-823, 48 h
MGC-803 [8] = experiment: Induction of apoptosis in human MGC-803 cells assessed as early apoptotic cells at 2 uM incubated for 48 hrs by Annexin V-FITC/PI staining based flow cytometry analysis (reference value: 0.30%); assay type: functional
MGC-803 [9] = experiment: Antiproliferative activity against human MGC-803 cells assessed as inhibition of cell growth incubated for 24 to 48 hrs by MTT assay; assay type: functional, cell-based
MGC-803 [10] = experiment: Lipid-lowering activity in human MGC-803 cells assessed as reduction in lipid size by Oil Red O staining based analysis; assay type: functional, cell-based; details: dose 1-4 µM
MGC-803 [11] = experiment: Induction of apoptosis in human MGC-803 cells assessed as early apoptotic cells at 4 uM incubated for 48 hrs by Annexin V-FITC/PI staining based flow cytometry analysis (reference value: 0.30%); assay type: functional

## C=C1CC[C@@H]2[C@](C)(CO)[C@H](O)CC[C@@]2(C)[C@@H]1/C=C/C1=CC(=C/c2ccc(C)cc2)/NC1=O
MGC-803 [1]
  inhibition in vivo at 50 mg/kg: 50%
MGC-803 [2]
  inhibition in vivo at 25 mg/kg: 20%
MGC-803 [3]
  IC50: 3.56 µM
A549
  Activity: inactive
[4]
  Activity: Non-toxic
MGC-803 [5]
  IC50: 2.87 µM
MGC-803 [6]
  Activity: 41.5%
[7]
  Ratio IC50: ~8
AGS
  IC50: 5.24 µM
PC-3
  Activity: inactive
BGC-823
  IC50: 38 µM
MGC-803 [8]
  Activity: 5.47%
MGC-803 [9]
  IC50: 3.56 µM
MGC-803 [10]
  Activity: Dose-dependent-effect
MGC-803 [11]
  Activity: 12.4%
